Test results: patent publication US9173843B2, “Crystalline active ingredient microparticles, method for producing the same and use thereof in drugs” (Jesalis Pharma GMBH, priority 2008, dated 2015)

Experiments:
[1] = grain size distribution by laser diffraction (Sympatec Helos, RODOS dry disperser); assay type: physicochemical; details: vol. % of particles smaller than value
Procedure: The particle size distribution (grain size distribution) is measured by means of a laser diffraction, which provides a distribution curve of the particle sizes (System Sympatec Helos, RODOS dry disperser). dx means that x volume percent (vol. %) of the particles have a diameter that is smaller than the stated value. Thus, at a d50 value of 1 μm, 50 vol. % of the particles have a diameter smaller than 1 μm (micrometer). When the d10, d99 or d100 is 2 μm, 10, 99 or 100 vol. % of the particles have a diameter smaller than 2 μm.
A 100-ml stirred vessel with blade stirrer is charged with 160 g of Y-stabilized zirconium oxide spheres with a diameter of 0.5 mm plus 30 ml water. A solution of 1.5 g drospirenone in 6.25 ml ethanol/water 4:1 (v/v) is added, with stirring. After precipitation of a mainly amorphous phase, transformation to the crystalline modification begins after approximately 2 min. This is completed after 10 to 15 min. After completion of the phase transformation, a solution of 4.5 g drospirenone in 18.75 ml ethanol/water 4:1 (v/v) and in the same ratio 90 ml water is added dropwise within 15 min, with stirring at 1500 rpm. Simultaneously, with approximately constant filling level, product suspension is drawn off. Addition and product withdrawal can also take place quasicontinuously in smaller portions without any adverse effect on the result, if the above time frame is maintained. After the end of addition, to make the yield complete, approx. 60 ml water is used for rinsing. Alternatively, the suspension in the crystallizer can also be left as starting suspension for the next batch. Altogether, 200 g of suspension is obtained, with a solids content of 25 mg per ml. Approximately 15 ml of this suspension is filtered on a G4 frit and the solid is air-dried. The grain size distribution of the dried substance is determined by laser diffraction (Sympatec Helos, RODOS dispersing system).
Granulometric analysis is carried out by laser diffraction (Sympatec Helos, RODOS dispersing system):
Granulometric analysis was carried out by laser diffraction (Sympatec Helos, RODOS dispersing system, dispersing pressure 5 bar).

[2] = solubility kinetics by the paddle method (dissolved fraction by HPLC); assay type: physicochemical; details: 900 ml water, 37° C., 150 rpm; micronizate pre-dispersed in 2 ml PVP-containing solution
Procedure: 14 mg of the solid form with Methocel E5 as excipient according to Example 2 with a content of active substance of 21.5 wt. % (equivalent to 3 mg drospirenone) is added to 900 ml water, at 37° C. and stirred at 150 rpm with a blade stirrer. A blind sample (starting value) and samples at 5, 10, 20, 30, and 60 min are taken, filtered in a 0.2 μm syringe filter and the dissolved fraction of drospirenone is determined by HPLC. A conventional micronizate (jet mill) serves as comparison. So that the dissolution behavior of the primary grains of the micronizate is assessed exclusively, wetting and agglomeration effects must be avoided. Therefore, before it was added to the 900 ml of water, the micronizate was dispersed in 2 ml of a PVP-containing solution. The process of release of the particles from the solid form and the subsequent process of dissolution are completed after 5 min, whereas with the conventional micronizate, even with perfect wetting and dispersion of the particles, still almost 30% of the active substance is undissolved after 5 min.

SMILES | d16 (grain size distribution) [1] [μm] | d50 (grain size distribution) [1] [μm] | d99 (grain size distribution) [1] [μm] | d100 (grain size distribution) [1] [μm] | active substance undissolved after 5 min [2] [%]
C[C@]12CCC(=O)C=C1[C@@H]1C[C@@H]1[C@H]1[C@@H]3[C@@H]4C[C@@H]4[C@@]4(CCC(=O)O4)[C@@]3(C)CC[C@@H]12 [Example 1, drospirenone] | 0.52 | 1.48 | 4.63 | 6.00 | 
C[C@]12CCC(=O)C=C1[C@@H]1C[C@@H]1[C@H]1[C@@H]3[C@@H]4C[C@@H]4[C@@]4(CCC(=O)O4)[C@@]3(C)CC[C@@H]12 [conventional micronizate, drospirenone] |  |  |  |  | ~30
